Data published in ChEMBL document CHEMBL3997795, “Conjugates of 2,4-Dihydroxybenzoate and Salicylhydroxamate and Lipocations Display Potent Antiparasite Effects by Efficiently Targeting the Trypanosoma brucei and Trypanosoma congolense Mitochondrion” (J Med Chem, 2017).
Active and inactive are the calls of the source. No cut-off for these calls is given here.

Tests used:
[1] = Cytostatic activity against HEK293T cells after 30 hrs by resazurin based fluorimetric assay; format: cell-based, HEK-293T; settings: human
[2] = Cytotoxicity against HEK cells up to 50 uM after 30 hrs by resazurin based fluorimetric assay; format: cell-based; settings: human
[3] = system: Trypanosoma brucei brucei; assay: Anti-parasitic activity against bloodstream trypomastigote stage of wild-type Trypanosoma brucei brucei Lister 427 after 48 hrs by alamar blue based fluorescence assay; format: functional; settings: Lister 427, 48 h
[4] = Selectivity index, ratio of CC50 for HEK293T cells to EC50 for bloodstream trypomastigote stage of wild-type Trypanosoma brucei brucei Lister 427; format: toxicity; settings: human, read-out: Ratio CC50/EC50
[5] = system: Trypanosoma brucei brucei; assay: Trypanocidal activity against bloodstream trypomastigote stage of wild-type Trypanosoma brucei brucei Lister 427 assessed as inhibition of respiration at 10 uM; format: functional
[6] = Selectivity index, ratio of CC50 for HEK293T cells to EC50 for bloodstream form of Trypanosoma congolense IL3000; format: toxicity; settings: human, read-out: Ratio CC50/EC50
[7] = system: Trypanosoma brucei brucei; assay: Anti-parasitic activity against diminazene, pentamidine and melaminophenyl arsenical-resistant bloodstream trypomastigote stage of Trypanosoma brucei brucei B48 harboring TbAT1 deletion mutant after 48 hrs by alamar blue based fluorescence assay; format: functional; settings: B48, 48 h
[8] = Resistance factor, ratio of EC50 for diminazene, pentamidine and melaminophenyl arsenical-resistant bloodstream trypomastigote stage of Trypanosoma brucei brucei B48 harboring TbAT1 deletion mutant to EC50 for bloodstream trypomastigote stage of wild-type Trypanosoma brucei brucei Lister 427; format: functional
[9] = system: Trypanosoma congolense; assay: Anti-parasitic activity against bloodstream form of Trypanosoma congolense IL3000 after 48 hrs by alamar blue based fluorescence assay; format: functional; settings: IL3000, 48 h
[10] = system: Trypanosoma brucei brucei; assay: Trypanocidal activity against bloodstream trypomastigote stage of wild-type Trypanosoma brucei brucei Lister 427 assessed as inhibition of respiration at 10 uM in presence of glycerol; format: functional
[11] = system: Trypanosoma brucei brucei; assay: Trypanocidal activity against bloodstream trypomastigote stage of wild-type Trypanosoma brucei brucei Lister 427 assessed as inhibition of respiration in presence of glycerol; format: functional
[12] = system: Trypanosoma brucei brucei; assay: Resistant factor, ratio of EC50 for bloodstream trypomastigote stage of wild-type Trypanosoma brucei brucei Lister 427 assessed as inhibition of respiration in presence of glycerol to EC50 for bloodstream trypomastigote stage of wild-type Trypanosoma brucei brucei Lister 427 assessed as inhibition of respiration in absence of glycerol; format: functional
[13] = Selectivity index, ratio of CC50 for HFF cells to EC50 for bloodstream form of Trypanosoma congolense IL3000; format: toxicity; settings: human, read-out: Ratio CC50/EC50
[14] = Inhibition of recombinant MTS-deficient N-terminal His6-tagged and SUMO-tagged Trypanosoma alternative oxidase expressed in Escherichia coli FN102 using ubiquinol-1 as substrate
[15] = Cytotoxicity against HFF cells after 30 hrs by resazurin based fluorimetric assay; format: cell-based; settings: human
[16] = Selectivity index, ratio of CC50 for HFF cells to EC50 for bloodstream trypomastigote stage of wild-type Trypanosoma brucei brucei Lister 427; format: toxicity; settings: human, read-out: Ratio CC50/EC50
[17] = system: Trypanosoma brucei brucei; assay: Induction of mitochondrial membrane hyperpolarization in bloodstream trypomastigote stage of wild-type Trypanosoma brucei brucei Lister 427 at 10 uM after 10 mins by TMRE dye based flow cytometry; format: functional
[18] = system: Trypanosoma brucei brucei; assay: Trypanocidal activity against bloodstream trypomastigote stage of wild-type Trypanosoma brucei brucei Lister 427 at 3 times EC50 after 4 hrs by propidium iodide staining based fluorimetric assay; format: functional
[19] = system: Trypanosoma brucei brucei; assay: Induction of plasma membrane disruption in bloodstream trypomastigote stage of wild-type Trypanosoma brucei brucei Lister 427 assessed as increase in propidium iodide influx after 6 hrs by fluorimetric assay; format: functional
[20] = system: Trypanosoma brucei brucei; assay: Induction of mitochondrial membrane depolarization in bloodstream trypomastigote stage of wild-type Trypanosoma brucei brucei Lister 427 at 100 nM after 10 mins by TMRE dye based flow cytometry; format: functional
[21] = system: Trypanosoma brucei brucei; assay: Reduction in oxygen consumption in bloodstream trypomastigote stage of wild-type Trypanosoma brucei brucei Lister 427 at 50 uM measured immediately for 120 mins by fluorescent oxygen reporter probe based fluorimetric assay; format: functional
[22] = system: Trypanosoma brucei brucei; assay: Reduction in oxygen consumption in bloodstream trypomastigote stage of wild-type Trypanosoma brucei brucei Lister 427 measured immediately for 120 mins by fluorescent oxygen reporter probe based fluorimetric assay; format: functional
[23] = system: Trypanosoma brucei brucei; assay: Anti-parasitic activity against bloodstream trypomastigote stage of Trypanosoma brucei brucei Lister 427 over-expressing TAO relative to bloodstream trypomastigote stage of wild-type Trypanosoma brucei brucei Lister 427; format: functional
[24] = system: Trypanosoma brucei brucei; assay: Cell cycle arrest in bloodstream trypomastigote stage of wild-type Trypanosoma brucei brucei Lister 427 assessed as accumulation at G1 phase at 0.005 uM after 24 hrs by propidium iodide staining-based flow cytometry; format: functional
[25] = system: Trypanosoma brucei brucei; assay: Cell cycle arrest in bloodstream trypomastigote stage of wild-type Trypanosoma brucei brucei Lister 427 assessed as accumulation at G2 phase at 0.005 uM after 24 hrs by propidium iodide staining-based flow cytometry; format: functional
[26] = system: Trypanosoma brucei brucei; assay: Induction of mitochondrial membrane depolarization in bloodstream trypomastigote stage of wild-type Trypanosoma brucei brucei Lister 427 at 0.005 uM after 10 mins by TMRE dye based flow cytometry; format: functional
[27] = system: Trypanosoma brucei brucei; assay: Cell cycle arrest in bloodstream trypomastigote stage of wild-type Trypanosoma brucei brucei Lister 427 assessed as accumulation at S phase at 0.005 uM after 24 hrs by propidium iodide staining-based flow cytometry; format: functional

Row | SMILES | CC50 at 30 h [1] [nM] | Activity [2] | EC50 [3] [nM] | selectivity ratio [4] | selectivity ratio [6] | EC50 [7] [nM] | Ratio EC50 [8] | EC50 [9] [nM] | EC50 [11] [nM] | Ratio EC50 [12] | also measured
1 | O=C(NO)c1ccc(OCCCCCCCCCC[P+](c2ccccc2)(c2ccccc2)c2ccccc2)cc1O.[Br-] | > 400000 | Non-Toxic | 200 | > 2040 |  |  |  |  |  |  | 
2 | BrCCCCCCCCCC[P+](c1ccccc1)(c1ccccc1)c1ccccc1.[Br-] | 6010 | Non-Toxic | 1.8 | 3340 | 6.3 | 1.2 | 0.7 | 950 |  |  | inhibition [5]: inactive; inhibition [10]: inactive
3 | O=C(OCCCCCCCCCC[P+](c1ccccc1)(c1ccccc1)c1ccccc1)c1ccc(O)cc1O.[Br-] | 2330 | Non-Toxic | 1.3 | 1770 | 13.2 | 1.1 | 0.86 | 180 | 2 | 1.26 | 
4 | O=C(OCCCCCCCCCCCCCCCC[n+]1cccc2ccccc21)c1ccc(O)cc1O.[Br-] |  |  | 140 |  |  | 140 | 1.01 | 3000 | 89 | 0.62 | selectivity ratio [13]: 115; IC50 [14]: > 5000 nM; CC50 at 30 h [15]: 345000 nM; selectivity ratio [16]: 2410
5 | O=C(NO)c1ccc(OCCCCCCCC[P+](c2ccccc2)(c2ccccc2)c2ccccc2)cc1O.[Br-] | > 400000 | Non-Toxic | 400 | > 1000 | > 14.7 |  |  | 27200 |  |  | 
6 | Cc1c(C)c2c(c(C)c1O)CCC(C)(COc1ccc(CC3SC(=O)NC3=O)cc1)O2 (stereo not given) |  |  |  |  |  |  |  |  |  |  | Activity [17]: Active
7 | O=C(OCCCCCCCCCCCCCC[n+]1cccc2ccccc21)c1ccc(O)cc1O.[Br-] |  |  | 100 |  |  | 125 | 1.21 | 3800 | 78 | 0.75 | Activity [18]: Active; Activity [19]: Dose-dependent effect; selectivity ratio [13]: 45.3; IC50 [14]: 1360 nM; CC50 at 30 h [15]: 172000 nM; selectivity ratio [16]: 1660
8 | O=C(OCCCCCCCCCCCCCCCCBr)c1ccc(O)cc1O | > 400000 | Non-Toxic | 45700 | > 9 |  | 49000 | 1.07 | > 100000 |  |  | 
9 | O=C(O)c1ccc(O)cc1O [2,4-DIHYDROXYBENZOIC ACID] |  |  | 17100 |  |  |  |  |  | 19000 | 1.11 | IC50 [14]: 116000 nM
10 | N=C(N)c1ccc(OCCCCCOc2ccc(C(=N)N)cc2)cc1 [PENTAMIDINE] |  |  | 2.8 |  |  | 940 | 98 |  | 4 | 1.32 | 
11 | CC(C)[C@@H]1NC(=O)[C@H](C)OC(=O)[C@@H](C(C)C)NC(=O)[C@@H](C(C)C)OC(=O)[C@H](C(C)C)NC(=O)[C@H](C)OC(=O)[C@@H](C(C)C)NC(=O)[C@@H](C(C)C)OC(=O)[C@H](C(C)C)NC(=O)[C@H](C)OC(=O)[C@@H](C(C)C)NC(=O)[C@@H](C(C)C)OC1=O |  |  |  |  |  |  |  |  |  |  | Activity [20]: Active
12 | O=C(OCCCCCCCCC[P+](c1ccccc1)(c1ccccc1)c1ccccc1)c1ccc(O)cc1O.[Br-] | 4680 | Non-Toxic | 5.9 | 789 | 11.5 | 7.4 | 1.24 | 410 | 5 | 0.88 | 
13 | N=C(N)c1ccc(/N=N/Nc2ccc(C(=N)N)cc2)cc1 [DIMINAZENE] |  |  | 65 |  |  | 780 |  | 151 | 63 | 0.97 | 
14 | O=C(OCCCCCCCCCCCCCCCC[P+](c1ccccc1)(c1ccccc1)c1ccccc1)c1ccc(O)cc1O.[Br-] |  |  | 9 |  |  | 8 | 0.91 | 122 | 5 | 0.6 | selectivity ratio [13]: 2040; IC50 [14]: > 5000 nM; CC50 at 30 h [15]: 249000 nM; selectivity ratio [16]: 27700
15 | O=C(OCCCCCCCCCCCCBr)c1ccc(O)cc1O | > 400000 | Non-Toxic | 14500 | > 28 | > 7.7 | 14900 | 1.03 | 52100 |  |  | 
16 | O=C(OCCCCCCCCCCCC[n+]1cccc2ccccc21)c1ccc(O)cc1O.[Br-] |  |  | 330 |  |  | 347 | 1.05 | 7000 | 230 | 0.69 | selectivity ratio [13]: 28.7; IC50 [14]: > 5000 nM; CC50 at 30 h [15]: 202000 nM; selectivity ratio [16]: 609
17 | O=C(NO)c1ccc(OCCCCCCCCCCCC[P+](c2ccccc2)(c2ccccc2)c2ccccc2)cc1O.[Br-] | > 400000 | Non-Toxic | 140 | > 2860 | > 8.6 |  |  | 46400 | 158 | 1.13 | 
18 | O=C(OCCCCCCCCCCCC[P+](c1ccccc1)(c1ccccc1)c1ccccc1)c1ccc(O)cc1O.[Br-] | 1650 | Non-Toxic | 1.2 | 1330 |  | 1.2 | 0.96 | 42 | 1.2 | 1.01 | 
19 | O=C(NO)c1ccccc1O [SALICYLHYDROXAMIC ACID] |  |  | 38700 |  |  |  |  |  | 7000 |  | Activity [21]: Active; Activity [22]: Dose-dependent effect; fold change (FC) [23]: 1.6
20 | O=C(OCCCCCCCCCCCCCC[P+](c1ccccc1)(c1ccccc1)c1ccccc1)c1ccc(O)cc1O.[Br-] |  |  | 1.5 |  |  | 1.2 | 0.78 | 61 | 0.8 | 0.55 | Activity [18]: Active; Activity [19]: Dose-dependent effect; Activity [24]: Active; Activity [25]: Active; Activity [26]: Active; selectivity ratio [13]: 982; IC50 [14]: 1460 nM; CC50 at 30 h [15]: 59700 nM; Activity [22]: Dose-dependent effect; selectivity ratio [16]: 23400; Activity [27]: Active; fold change (FC) [23]: 2.6
21 | O=C(OCCCCCCCC[P+](c1ccccc1)(c1ccccc1)c1ccccc1)c1ccc(O)cc1O.[Br-] | 7730 | Non-Toxic | 73 | 106 | 1.8 | 68 | 0.94 | 4300 | 84 | 1.16 | 
22 | O=COCCCCCCCCCCOC(=O)c1ccc(O)cc1O | > 400000 | Non-Toxic | 31800 | > 12 |  | 22100 | 0.69 | > 100000 |  |  | 
